We go through one compound from patent US20060005273A1, “Novel maize split-seed explant and methods for in vitro regeneration of maize” (University of Toledo, priority 2004, published 2006).

In experiment [1] the test system is embryogenic callus from maize split-seed explant. The experiment can be described thus: shoot regeneration from embryogenic callus on callus/somatic embryo shoot induction medium. Type of experiment: cell-based. The following applies: maximum period of two months. Here is the method:
Embryogenic calli/somatic embryos are transferred to a “callus/somatic embryo shoot induction medium” (which is an embodiment of the present and is described below) and allowed to develop shoots. The cultures are maintained at 27° C. under 16-hour soft white light. Shoot regeneration frequency is determined by calculating the number of embryogenic calli producing shoots and the number of shoots per callus.
A “callus/somatic embryo shoot induction medium” comprises MS basal salts and B5 vitamins supplemented with a cytokinin, or mixtures of cytokinins. A preferred cytokinin is BAP. The concentration of a cytokinin preferably ranges from 0.1 mg/l to 2.0 mg/l. Preferably the concentration of a cytokinin ranges from […] and most preferably ranges from 0.75 mg/l to 1.0 mg/l. In a preferred embodiment, a cytokinin is BAP is preferably at a concentration of 1.0 mg/l.
White and soft callus formed on the surface of split-seed explants is removed after one week for further growth on “primary calli maintenance medium” (FIG. 3B). Callus initiation from the split-seed is observed in four day old cultures. After one month in culture, highly proliferated calli (FIG. 3C) are transferred to an “embryogenic callus induction medium” containing 2,4-D at 0.1 mg/l and BAP at 0.5 mg/l to maintain embryogenic callus (FIG. 3D). The callus is sub-cultured every two weeks. […]

The subject of the next experiment is maize split-seed explant. The experiment can be described thus: direct multiple shoot formation on split-seed explant shoot induction medium. Type of experiment: cell-based. The following applies: BAP alone. Here is the method:
Another embodiment of the present invention provides a “split-seed explant shoot induction medium.” When a split-seed explant is exposed to a “split-seed explant shoot induction medium” and incubated under a 16-h soft white light at 27° C., the split-seed explant generates at least one shoot. A “split-seed explant shoot induction medium” comprises MS basal salts and B5 vitamins supplemented with a cytokinin or mixtures of cytokinins. A preferred cytokinin is BAP. The concentration of a cytokinin may range from 1.0 mg/l to 6.0 mg/l. Preferably the concentration of a cytokinin ranges from 1.0 mg/l to 5.0 mg/l and more preferably ranges from 1.5 mg/l to 4.5 mg/l. In a preferred embodiment, a cytokinin is BAP and is at a concentration of 3.0 mg/l to 4.0 mg/l. In a preferred embodiment, BAP is preferably at a concentration of 4.0 mg/l. A “split-seed explant shoot induction medium” further comprises glycine at a preferable concentration of 1.0 mg/l, casein hydrolysate at a preferable concentration of 400 mg/l, and sucrose at a preferable concentration of 30 g/l. A “split-seed explant shoot induction medium” may be solidified with 8.0 g/l agar. The pH of the medium is adjusted to 5.8 prior to adding the agar and the medium is autoclaved at 121° C. for 20 minutes.
In another embodiment, a “split-seed explant shoot induction medium” further comprises 6-furfurylaminopurine (“kinetin”). […]

`c1ccc(CNc2ncnc3nc[nH]c23)cc1` [BAP, 6-benzylamino purine]: the “BAP concentration giving the highest number of shoots” value in experiment [1] turned out to be 1.0 mg/L. Besides, the multiple shoot induction result in the experiment on maize split-seed explant was “induces multiple shoots”.
